Measured values as given in ChEMBL document CHEMBL3045211, “Acute and chronic anti-inflammatory evaluation of imidazo[1,2-a]pyridine carboxylic acid derivatives and docking analysis” (Med Chem Res, 2012).
Activity calls are given as the source filed them. No cut-off for these calls is given here.

How the values were obtained:
[1] = target: T1, Prostaglandin G/H synthase 1 (Homo sapiens, UniProt P23219); assay: Inhibition of COX1 (unknown origin) at 1 uM
[2] = test system: Rattus norvegicus; assay: Anti-inflammatory activity in Rattus norvegicus Wistar (rat) assessed as inhibition of carrageenan-induced paw edema at 10 mg/kg administered for 1 hr followed by carrageenan challenge measured at 1 hr relative to control; assay type: functional
[3] = test system: Rattus norvegicus; assay: Anti-inflammatory activity in Rattus norvegicus Wistar (rat) assessed as inhibition of carrageenan-induced paw edema at 10 mg/kg administered for 1 hr followed by carrageenan challenge measured at 3 hr relative to control; assay type: functional
[4] = target: T2, Prostaglandin G/H synthase 2 (Homo sapiens, UniProt P35354); assay: Binding affinity to COX2 (unknown origin)
T2 sequence (P35354 whole entry): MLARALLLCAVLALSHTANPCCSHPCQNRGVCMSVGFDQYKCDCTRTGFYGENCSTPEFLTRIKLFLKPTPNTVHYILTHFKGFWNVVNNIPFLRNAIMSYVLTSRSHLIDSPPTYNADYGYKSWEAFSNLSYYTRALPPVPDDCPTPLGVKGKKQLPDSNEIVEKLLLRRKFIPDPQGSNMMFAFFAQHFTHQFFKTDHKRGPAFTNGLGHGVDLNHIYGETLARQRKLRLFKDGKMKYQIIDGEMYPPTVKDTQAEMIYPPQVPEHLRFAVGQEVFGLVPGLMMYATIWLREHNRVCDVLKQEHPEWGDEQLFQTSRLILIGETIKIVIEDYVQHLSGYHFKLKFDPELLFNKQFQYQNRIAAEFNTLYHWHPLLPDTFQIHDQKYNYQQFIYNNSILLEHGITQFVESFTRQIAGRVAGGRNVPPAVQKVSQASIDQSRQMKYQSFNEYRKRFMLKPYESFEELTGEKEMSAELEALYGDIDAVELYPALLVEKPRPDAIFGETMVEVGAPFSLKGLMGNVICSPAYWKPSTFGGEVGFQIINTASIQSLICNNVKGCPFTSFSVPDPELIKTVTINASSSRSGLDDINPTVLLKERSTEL

[5] = test system: Rattus norvegicus; assay: Anti-inflammatory activity in Rattus norvegicus Wistar (rat) assessed as inhibition of carrageenan-induced paw edema at 10 mg/kg administered for 1 hr followed by carrageenan challenge measured at 2 hr relative to control; assay type: functional
[6] = organism: Rattus norvegicus; assay: Toxicity in Rattus norvegicus Wistar (rat); assay type: organism-based; settings: in vivo
[7] = test system: Rattus norvegicus; assay: Anti-inflammatory activity in Rattus norvegicus Wistar (rat) assessed as inhibition of carrageenan-induced paw edema at 10 mg/kg administered for 1 hr followed by carrageenan challenge measured at 4 hr relative to control; assay type: functional
[8] = test system: Rattus norvegicus; assay: Anti-inflammatory activity in Rattus norvegicus Wistar (rat) assessed as decrease in cotton pellet-induced final granuloma weight at 10 mg/kg, po administered for 7 days measured on day 8; assay type: functional, organism-based; set-up: dose 10 mg/kg
[9] = test system: Rattus norvegicus; assay: Anti-inflammatory activity in Rattus norvegicus Wistar (rat) assessed as decrease in cotton pellet-induced dry granuloma weight at 10 mg/kg, po administered for 7 days measured on day 8; assay type: functional, organism-based; set-up: dose 10 mg/kg
[10] = test system: Rattus norvegicus; assay: Anti-inflammatory activity in Rattus norvegicus Wistar (rat) assessed as decrease in cotton pellet-induced wet granuloma weight at 10 mg/kg, po administered for 7 days measured on day 8; assay type: functional, organism-based; set-up: dose 10 mg/kg
[11] = target: T1, Prostaglandin G/H synthase 1; assay: Binding affinity to COX1 (unknown origin)
[12] = test system: Rattus norvegicus; assay: Ulcerogenic activity in Rattus norvegicus Wistar (rat) stomach at 5 mg/kg, po relative to vehicle-treated control; assay type: toxicity, organism-based; set-up: dose 5 mg/kg, route oral; settings: in vivo
[13] = test system: Rattus norvegicus; assay: Anti-inflammatory activity in Rattus norvegicus Wistar (rat) assessed as cotton pellet-induced final granuloma weight at 5 mg/kg, po administered for 7 days measured on day 8 (reference value: 110.3 +/- 8.7 mg); assay type: functional
[14] = test system: Rattus norvegicus; assay: Gastrointestinal toxicity in Rattus norvegicus Wistar (rat) duodenum assessed as appearance of redness at 5 mg/kg, po relative to vehicle-treated control; assay type: organism-based; set-up: dose 5 mg/kg, route oral; settings: in vivo
[15] = test system: Rattus norvegicus; assay: Anti-inflammatory activity in Rattus norvegicus Wistar (rat) assessed as inhibition of carrageenan-induced paw edema administered for 1 hr followed by carrageenan challenge measured at 4 hr relative to control; assay type: functional
[16] = test system: Rattus norvegicus; assay: Anti-inflammatory activity in Rattus norvegicus Wistar (rat) assessed as inhibition of carrageenan-induced paw edema administered for 1 hr followed by carrageenan challenge measured at 2 hr relative to control; assay type: functional
[17] = test system: Rattus norvegicus; assay: Anti-inflammatory activity in Rattus norvegicus Wistar (rat) assessed as inhibition of carrageenan-induced paw edema administered for 1 hr followed by carrageenan challenge measured at 1 hr relative to control; assay type: functional
[18] = test system: Rattus norvegicus; assay: Gastrointestinal toxicity in Rattus norvegicus Wistar (rat) stomach assessed as appearance of redness at 5 mg/kg, po relative to vehicle-treated control; assay type: organism-based; set-up: dose 5 mg/kg, route oral; settings: in vivo
[19] = test system: Rattus norvegicus; assay: Toxicity in Rattus norvegicus Wistar (rat) assessed as mortality at 5 mg/kg, po administered for 7 days measured on day 8; assay type: organism-based; set-up: dose 5 mg/kg, route oral; settings: in vivo, 168 h
[20] = test system: Rattus norvegicus; assay: Anti-inflammatory activity in Rattus norvegicus Wistar (rat) assessed as inhibition of carrageenan-induced paw edema administered for 1 hr followed by carrageenan challenge measured at 3 hr relative to control; assay type: functional
[21] = target: T1, Prostaglandin G/H synthase 1; assay: Inhibition of COX1 (unknown origin)
[22] = test system: Rattus norvegicus; assay: Gastrointestinal toxicity in Rattus norvegicus Wistar (rat) stomach assessed as appearance of redness at 10 mg/kg, po relative to vehicle-treated control; assay type: organism-based; set-up: dose 10 mg/kg, route oral; settings: in vivo
[23] = test system: Rattus norvegicus; assay: Anti-inflammatory activity in Rattus norvegicus Wistar (rat) assessed as cotton pellet-induced final granuloma weight at 10 mg/kg, po administered for 7 days measured on day 8 (reference value: 110.3 +/- 8.7 mg); assay type: functional
[24] = target: T3, Prostaglandin G/H synthase 2 (Homo sapiens) (UniProt P35354); assay: Inhibition of COX2 (unknown origin) at 10 uM
T3 sequence (whole entry): T2 sequence (P35354 whole entry)

[25] = test system: Rattus norvegicus; assay: Ulcerogenic activity in Rattus norvegicus Wistar (rat) stomach at 10 mg/kg, po relative to vehicle-treated control; assay type: toxicity, organism-based; set-up: dose 10 mg/kg, route oral; settings: in vivo
[26] = test system: Rattus norvegicus; assay: Gastrointestinal toxicity in Rattus norvegicus Wistar (rat) duodenum assessed as appearance of redness at 10 mg/kg, po relative to vehicle-treated control; assay type: organism-based; set-up: dose 10 mg/kg, route oral; settings: in vivo

T1 sequence (P23219 whole entry): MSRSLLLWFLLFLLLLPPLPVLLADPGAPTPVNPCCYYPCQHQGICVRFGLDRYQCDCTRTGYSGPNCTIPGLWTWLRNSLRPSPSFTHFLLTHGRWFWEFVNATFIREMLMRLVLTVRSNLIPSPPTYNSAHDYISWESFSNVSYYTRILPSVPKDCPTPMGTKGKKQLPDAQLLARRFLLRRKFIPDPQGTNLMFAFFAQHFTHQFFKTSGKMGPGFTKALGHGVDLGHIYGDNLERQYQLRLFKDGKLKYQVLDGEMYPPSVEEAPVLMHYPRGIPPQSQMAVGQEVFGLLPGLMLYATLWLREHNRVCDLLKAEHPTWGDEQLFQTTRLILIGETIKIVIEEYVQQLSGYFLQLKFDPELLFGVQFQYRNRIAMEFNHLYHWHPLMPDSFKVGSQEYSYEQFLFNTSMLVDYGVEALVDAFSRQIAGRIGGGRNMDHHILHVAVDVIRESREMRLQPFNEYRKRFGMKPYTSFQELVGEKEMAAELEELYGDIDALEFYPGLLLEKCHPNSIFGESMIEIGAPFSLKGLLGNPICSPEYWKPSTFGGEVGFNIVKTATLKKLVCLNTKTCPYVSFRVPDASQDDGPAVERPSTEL

**Q.** Which inhibition [1] does the source give for `O=C(O)c1cn2ccccc2n1` here?
**A.** 15.6%

**Q.** What about the inhibition in vivo at 10 mg/kg [2] of the same compound?
**A.** 75.6%

**Q.** What about the inhibition in vivo at 10 mg/kg [3] of the same compound?
**A.** 69.4%

**Q.** And the Kd [4]?
**A.** 652 nM

**Q.** And the inhibition in vivo at 10 mg/kg [5]?
**A.** 62.5%

**Q.** And the LD [6]?
**A.** 1000 mg/kg

**Q.** And the inhibition in vivo at 10 mg/kg [7]?
**A.** 74%

**Q.** And the Activity [8]?
**A.** Active

**Q.** What about the Activity [9] of the same compound?
**A.** Active

**Q.** What about the Activity [10] of the same compound?
**A.** Active

**Q.** And the Kd [11]?
**A.** 1540 nM

**Q.** For `COc1ccc2c(c1)c(CC(=O)O)c(C)n2C(=O)c1ccc(Cl)cc1` [INDOMETHACIN], which Activity [12] is on record?
**A.** Toxic

**Q.** What about the Activity [13] of the same compound?
**A.** 42.3 mg

**Q.** What about the Activity [14] of the same compound?
**A.** Toxic

**Q.** And the “inhibition (INH)” value [15]?
**A.** 74.6%

**Q.** And the “inhibition (INH)” value [16]?
**A.** 65.5%

**Q.** And the “inhibition (INH)” value [17]?
**A.** 62.6%

**Q.** What about the Activity [18] of the same compound?
**A.** Toxic

**Q.** What about the Activity [19] of the same compound?
**A.** Toxic

**Q.** What about the “inhibition (INH)” value [20] of the same compound?
**A.** 77.3%

**Q.** With `CCOC(=O)c1nc2ccccn2c1[N+](=O)[O-]` as the compound, how does the inhibition [21] read?
**A.** inactive

**Q.** And the inhibition in vivo at 10 mg/kg [2]?
**A.** 54.2%

**Q.** What about the inhibition in vivo at 10 mg/kg [3] of the same compound?
**A.** 25.4%

**Q.** What about the Kd [4] of the same compound?
**A.** 227 nM

**Q.** What about the inhibition in vivo at 10 mg/kg [5] of the same compound?
**A.** 43.1%

**Q.** What about the LD [6] of the same compound?
**A.** 1000 mg/kg

**Q.** What about the inhibition in vivo at 10 mg/kg [7] of the same compound?
**A.** 14.2%

**Q.** What about the Kd [11] of the same compound?
**A.** 1040 nM

**Q.** Which inhibition [21] does the source give for `O=C(O)c1nc2ccccn2c1[N+](=O)[O-]` here?
**A.** inactive

**Q.** What about the inhibition in vivo at 10 mg/kg [2] of the same compound?
**A.** 57.2%

**Q.** And the inhibition in vivo at 10 mg/kg [3]?
**A.** 24.4%

**Q.** What about the Kd [4] of the same compound?
**A.** 50.1 nM

**Q.** What about the inhibition in vivo at 10 mg/kg [5] of the same compound?
**A.** 43.5%

**Q.** What about the LD [6] of the same compound?
**A.** 1000 mg/kg

**Q.** What about the inhibition in vivo at 10 mg/kg [7] of the same compound?
**A.** 14.2%

**Q.** What about the Activity [8] of the same compound?
**A.** Active

**Q.** What about the Activity [9] of the same compound?
**A.** Active

**Q.** And the Activity [10]?
**A.** Active

**Q.** What about the Kd [11] of the same compound?
**A.** 15.6 nM

**Q.** Which results are given for `Nc1c(C(=O)O)nc2ccccn12`?
**A.** Activity [22]: Non-toxic; inhibition [21]: inactive; Activity [23]: 70.5 mg; inhibition in vivo at 10 mg/kg [2]: 61.3%; inhibition in vivo at 10 mg/kg [3]: 80.3%; Kd [4]: 448 nM; inhibition in vivo at 10 mg/kg [5]: 76.7%; LD [6]: 1000 mg/kg; inhibition in vivo at 10 mg/kg [7]: 73.2%; Activity [9]: Active; inhibition [24]: 20%; Activity [25]: Non-toxic; Activity [26]: Non-toxic; Activity [10]: Active; Kd [11]: 262 nM

**Q.** Which Kd [4] does the source give for `CC(C(=O)O)c1ccc(-c2cn3ccccc3n2)cc1` (stereo unspecified) [MIROPROFEN] here?
**A.** 48.1 nM

**Q.** And the Kd [11]?
**A.** 185 nM
